The results in this text go back to patent US20090240027A1, “INTERMEDIATES FOR MACROCYCLIC COMPOUNDS” (Tranzyme Pharma Inc., priority 2003, published 2009).

Chain of human motilin receptor (O43193 whole entry): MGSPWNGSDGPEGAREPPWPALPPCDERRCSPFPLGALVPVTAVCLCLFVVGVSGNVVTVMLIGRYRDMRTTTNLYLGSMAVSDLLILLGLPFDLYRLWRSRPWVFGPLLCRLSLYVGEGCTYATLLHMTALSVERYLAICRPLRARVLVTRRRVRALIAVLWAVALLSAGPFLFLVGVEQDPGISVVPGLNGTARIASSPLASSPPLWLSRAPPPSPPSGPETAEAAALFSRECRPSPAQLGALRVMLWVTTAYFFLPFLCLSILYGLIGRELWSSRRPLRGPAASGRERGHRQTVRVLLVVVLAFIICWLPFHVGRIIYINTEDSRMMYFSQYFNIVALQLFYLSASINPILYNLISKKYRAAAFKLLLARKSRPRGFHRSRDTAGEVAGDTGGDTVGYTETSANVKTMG

The target in the first assay is human motilin receptor (Homo sapiens, UniProt O43193). In words: Competitive radioligand binding assay (Method B1). More on the design: purchased PerkinElmer 6110544; host or cells: CHO cells, stably transfected (membranes). The settings on record: Radioligand competitive binding assay, Method B1; values reported as ranges; read-out: Ki (binding activity). How it is done:
Competitive Radioligand Binding Assay (Motilin Receptor)
• Membranes were prepared from CHO cells stably transfected with the human motilin receptor and utilized at a quantity of 1.5 μg/assay point.
Final Test Concentrations (N=11) for Compounds:
Compounds were provided frozen on dry ice at a stock concentration of 10 mM diluted in 100% DMSO and stored at −20° C. until the day of testing. On the test day, compounds were allowed to thaw at room temperature and than diluted in assay buffer according to the desired test concentrations. Under these conditions, the maximum final DMSO concentration in the assay was 0.5%.
Plates are sealed with TopSeal-A, vortexed gently and incubated at room temperature for 2 hours. The reaction is arrested by filtering samples through pre-soaked (0.3% polyethyleneimine, 2 h) Multiscreen Harvest plates using a Tomtec® Harvester (Tomtec, Hamden, Conn.)), washed 9 times with 500 μL of cold 50 mM Tris-HCl (pH 7.4), and than plates are air-dried in a fumehood for 30 minutes. A bottom seal is applied to the plates prior to the addition of 25 μL of MicroScint-0™ to each well.
Data are analyzed by GraphPad™ Prism (GraphPad Software, San Diego, Calif.) using a variable slope non-linear regression analysis.
where total and non-specific binding represent the cpm obtained in the absence or presence of 1 μM motilin, respectively.
Regarding `CCC[C@@H]1NC(=O)[C@@H](C(C)C)NC(=O)[C@@H](Cc2ccccc2)NCCOc2ccccc2/C=C/CNC1=O` [Compound 2], the Ki lay within 0.001 to 0.1 µM.

With `CCCC1NC(=O)C(C)NC(=O)C(Cc2ccc(O)cc2)NCCOc2ccccc2C=CCNC1=O` (centres unmarked) [Compound 5], the Ki is 0.1 to 1 µM.

Regarding `CSCCC1NC(=O)C(C(C)C)NC(=O)C(Cc2ccc(O)cc2)NCCOc2ccccc2C=CCNC1=O` (centres unmarked) [Compound 6], the Ki was 0.1 to 1 µM.

In the case of `CCCCC1NC(=O)C(C(C)C)NC(=O)C(Cc2ccc(O)cc2)NCCOc2ccccc2C=CCNC1=O` (centres unmarked) [Compound 7], the Ki was in the range of 0.1 to 1 µM.

Consider `CC(C)C1NC(=O)C(Cc2ccc(O)cc2)NCCOc2ccccc2C=CCNC(=O)C(C(C)C)NC1=O` (centres unmarked) [Compound 9], for which the Ki was in the range of 0.1 to 1 µM.

In the case of `CC(C)C[C@@H]1NC(=O)[C@@H](C(C)C)NC(=O)[C@@H](Cc2ccc(O)cc2)NCCOc2ccccc2/C=C/CNC1=O` [Compound 10], the Ki lay in the range of 0.001 to 0.1 µM.

Take `CCC1NC(=O)C(C(C)C)NC(=O)C(Cc2ccc(O)cc2)NCCOc2ccccc2C=CCNC1=O` (centres unmarked) [Compound 12]: the Ki lay within 0.1 to 1 µM.

In the case of `CC(C)CC1NC(=O)C(C(C)C)NC(=O)C(Cc2ccccc2)NCCOc2ccccc2CCCNC1=O` (centres unmarked) [Compound 13], the Ki was 0.1 to 1 µM.

`CC(C)C[C@@H]1NC(=O)[C@@H](C(C)C)NC(=O)[C@@H](Cc2ccc3ccccc3c2)NCCOc2ccccc2CCCNC1=O` [Compound 14]: the Ki was in the range of 0.1 to 1 µM.

Regarding `CCC[C@@H]1NC(=O)[C@@H](C(C)C)NC(=O)[C@@H](Cc2cccc(Cl)c2)NCCOc2ccccc2CCCNC1=O` [Compound 15], the Ki lay in the range of 0.001 to 0.1 µM.

Regarding `CCC[C@@H]1NC(=O)[C@@H](C(C)C)NC(=O)[C@@H](Cc2ccc(Cl)cc2)NCCOc2ccccc2CCCNC1=O` [Compound 16], the Ki lay in the range of 0.001 to 0.1 µM.

Turning to `CCC[C@@H]1NC(=O)[C@@H](C(C)C)NC(=O)[C@@H](Cc2c[nH]c3ccccc23)NCCOc2ccccc2CCCNC1=O` [Compound 17], the Ki lay in the range of 0.1 to 1 µM.

`CCCC1NC(=O)C(CC)NC(=O)C(Cc2ccc(O)cc2)NCCOc2ccccc2CCCNC1=O` (centres unmarked) [Compound 18]: the Ki was 0.1 to 1 µM.

As for `CCC[C@@H]1NC(=O)[C@@H](C(C)C)NC(=O)[C@@H](Cc2ccc(F)cc2)NCCOc2ccccc2CCCNC1=O` [Compound 19], the Ki was 0.001 to 0.1 µM.

For `CC(C)CC1NC(=O)C(C(C)C)NC(=O)C(Cc2ccccc2)NCCOc2ccccc2C=CCNC1=O` (centres unmarked) [Compound 20], the Ki was 0.1 to 1 µM.

Consider `CC(C)C[C@@H]1NC(=O)[C@@H](C(C)C)NC(=O)[C@@H](Cc2ccc3ccccc3c2)NCCOc2ccccc2/C=C/CNC1=O` [Compound 21], for which the Ki lay in the range of 0.001 to 0.1 µM.

On to `CCC[C@@H]1NC(=O)[C@@H](C(C)C)NC(=O)[C@@H](Cc2ccc(OC)cc2)NCCOc2ccccc2CCCNC1=O` [Compound 22], for which the Ki lay within 0.001 to 0.1 µM.

Regarding `CCC[C@@H]1NC(=O)[C@@H](C(C)C)NC(=O)[C@@H](Cc2cccc3ccccc23)NCCOc2ccccc2CCCNC1=O` [Compound 23], the Ki was 0.001 to 0.1 µM.

With `CCCC1NC(=O)C(C(C)C)NC(=O)C(Cc2ccccc2Cl)NCCOc2ccccc2CCCNC1=O` (centres unmarked) [Compound 25], the Ki is 0.1 to 1 µM.

For `CC(C)[C@H]1NC(=O)[C@@H](Cc2ccc(O)cc2)NCCOc2ccccc2CCCNC(=O)[C@H](CC2CC2)NC1=O` [Compound 26], the Ki was 0.001 to 0.1 µM.

`CCCC1NC(=O)C(C(C)C)NC(=O)C(Cc2cscn2)NCCOc2ccccc2CCCNC1=O` (centres unmarked) [Compound 27]: the Ki was in the range of 0.1 to 1 µM.

Consider `CCCC1NC(=O)C(C(C)C)NC(=O)C(Cc2cccnc2)NCCOc2ccccc2CCCNC1=O` (centres unmarked) [Compound 28], for which the Ki lay in the range of 0.1 to 1 µM.

In the case of `CCCC1NC(=O)C(Cc2ccc(O)cc2)NC(=O)C(Cc2ccc(O)cc2)NCCOc2ccccc2C=CCNC1=O` (centres unmarked) [Compound 34], the Ki lay within 0.1 to 1 µM.

As to `CC1NC(=O)C(C(C)C)NC(=O)C(Cc2ccc(O)cc2)NCCOc2ccccc2C=CCNC1=O` (centres unmarked) [Compound 38], the Ki was 1 to 10 µM.

Consider `CC(C)C1NC(=O)C(Cc2ccc(O)cc2)NCCOc2ccccc2C=CCNC(=O)CNC1=O` (centres unmarked) [Compound 40], for which the Ki lay within 1 to 10 µM.

Regarding `CCCC1NC(=O)C(Cc2ccccc2)NC(=O)C(Cc2ccc(O)cc2)NCCOc2ccccc2C=CCNC1=O` (centres unmarked) [Compound 41], the Ki was in the range of 1 to 10 µM.

As to `CC(C)C1NC(=O)C(Cc2ccc(O)cc2)NCCOc2ccccc2C=CCNC(=O)C(c2ccccc2)NC1=O` (centres unmarked) [Compound 52], the Ki lay in the range of 0.1 to 1 µM.

On to `CC(C)C1NC(=O)C(Cc2ccc(O)cc2)NCCOc2ccccc2C=CCNC(=O)C(CCCCN)NC1=O` (centres unmarked) [Compound 55], for which the inhibition constant (Ki) lay in the range of 0.1 to 1 µM.

As for `CC(C)C1NC(=O)C(Cc2ccc(O)cc2)NCCOc2ccccc2C=CCNC(=O)C(CCCN)NC1=O` (centres unmarked) [Compound 56], the Ki is 0.1 to 1 µM.

As to `CC(C)C1NC(=O)C(Cc2ccc(O)cc2)NCCOc2ccccc2C=CCNC(=O)C(CO)NC1=O` (centres unmarked) [Compound 57], the Ki fell in the range of 0.1 to 1 µM.

In the case of `CC(C)C1NC(=O)C(Cc2ccc(O)cc2)NCCOc2ccccc2C=CCNC(=O)C(Cc2ccc(O)cc2)NC1=O` (centres unmarked) [Compound 58], the Ki lay within 0.1 to 1 µM.

As for `CC(C)C1NC(=O)C(Cc2ccc(O)cc2)NCCOc2ccccc2C=CCNC(=O)C(Cc2c[nH]c3ccccc23)NC1=O` (centres unmarked) [Compound 59], the Ki fell in the range of 0.1 to 1 µM.

As to `COc1ccc(CC2NC(=O)C(C(C)C)NC(=O)C(Cc3ccc(O)cc3)NCCOc3ccccc3C=CCNC2=O)cc1` (centres unmarked) [Compound 60], the Ki was in the range of 1 to 10 µM.

Turning to `CCCC1NC(=O)C(C(C)C)NC(=O)C(Cc2ccc(O)cc2)NCCOc2cccc(c2)OCCNC1=O` (centres unmarked) [Compound 71], the Ki was in the range of 0.1 to 1 µM.

Consider `CC(C)C1NC(=O)C(Cc2ccc(O)cc2)NCCOc2ccccc2C=CCNC(=O)C(Cc2ccc3ccccc3c2)NC1=O` (centres unmarked) [Compound 72], for which the Ki was in the range of 0.1 to 1 µM.

Turning to `CCCC1NC(=O)C(Cc2ccc3ccccc3c2)NC(=O)C(Cc2ccc(O)cc2)NCCOc2ccccc2C=CCNC1=O` (centres unmarked) [Compound 76], the Ki was 1 to 10 µM.

Take `CCCCC1NC(=O)C(Cc2ccc(O)cc2)NCCOc2ccccc2C=CCNC(=O)C(CCC)NC1=O` (centres unmarked) [Compound 77]: the Ki fell in the range of 1 to 10 µM.

For the molecule `CCC(C)C1NC(=O)C(C(C)C)NC(=O)C(Cc2ccc(O)cc2)NCCOc2ccccc2C=CCNC1=O` (centres unmarked) [Compound 80], the Ki fell in the range of 0.1 to 1 µM.

Turning to `CCCC1NC(=O)C(C(C)C)NC(=O)C(Cc2ccc(O)cc2)NCCOc2ccccc2C=CCNC1=O` (centres unmarked) [Compound 85], the Ki lay within 0.1 to 1 µM.

As to `CCCC1NC(=O)C(C(C)C)NC(=O)C(Cc2ccc(-c3ccccc3)cc2)NCCOc2ccccc2CCCNC1=O` (centres unmarked) [Compound 87], the Ki is 0.1 to 1 µM.

Consider `CCCC1NC(=O)C(C(C)C)NC(=O)C(Cc2ccc(OC(C)(C)C)cc2)NCCOc2ccccc2CCCNC1=O` (centres unmarked) [Compound 88], for which the Ki fell in the range of 1 to 10 µM.

Turning to `CCCC1NC(=O)C(C(C)C)NC(=O)C(CCc2ccccc2)NCCOc2ccccc2CCCNC1=O` (centres unmarked) [Compound 89], the Ki was in the range of 1 to 10 µM.

Regarding `CCCC1NC(=O)C(C(C)C)NC(=O)C(C(c2ccccc2)c2ccccc2)NCCOc2ccccc2CCCNC1=O` (centres unmarked) [Compound 90], the Ki lay within 1 to 10 µM.

With `CCCC1NC(=O)C(CCC)NC(=O)C(Cc2ccc(O)cc2)NCCOc2ccccc2CCCNC1=O` (centres unmarked) [Compound 91], the Ki lay in the range of 1 to 10 µM.

As to `CCCC1NC(=O)C(C(C)(C)C)NC(=O)C(Cc2ccc(O)cc2)NCCOc2ccccc2CCCNC1=O` (centres unmarked) [Compound 92], the Ki is 0.1 to 1 µM.

Turning to `CCCC1NC(=O)CCNC(=O)C(Cc2ccc(O)cc2)NCCOc2ccccc2CCCNC1=O` (centres unmarked) [Compound 96], the Ki is 1 to 10 µM.

Still in this assay, the particulars now being: [125I]-motilin competition, CHO cell membranes with human motilin receptor; read-out: Binding activity (Ki).
For `CCCC1NC(=O)C(C(C)C)NC(=O)C(Cc2ccc(O)cc2)NCCOc2ccccc2C=CCNC1=O` (centres unmarked) [Compound 1], the Ki lay in the range of 0.1 to 1 µM.

In general, Ki refers to a measure of affinity in units of concentration, obtained from inhibition or displacement.
